Reference: EP4786487A1, “PEPTIDE” (Peptidream Inc, priority 2023, dated 2025)
Where two headings read alike, the source gives them in different places. Starred links: 1 amine or outer side, 2 acyl side, 3 side chain; linkers in the order of their positions; H or OH if unused. Positions of bridges follow the written chain, without caps; N, C: chain ends. Non-standard residues stand in square brackets, D forms with d. Residues, ends and D or L forms follow the SMILES beside them. *: point of attachment. Trp(6-OH,1-(4-HO2C-Ph)) = N[C@@H](Cc1cn(-c2ccc(C(=O)O)cc2)c2cc(O)ccc12)C(=O)O; Phe(3-OCH2COOH) = N[C@@H](Cc1cccc(OCC(=O)O)c1)C(=O)O; N(CH2CH2CO)Gly = O=C(CN(CCC(=O)[*:3])[*:1])[*:2]; NMePhe(4-CH2NH2) = CN[C@@H](Cc1ccc(CN)cc1)C(=O)O; Piperidine(4-CH2CH2CONH2) = NC(=O)CCC1CCN(*)CC1; Phe(4-COOH) = N[C@@H](Cc1ccc(C(=O)O)cc1)C(=O)O; Gly(N(CH2)3COOH) = O=C(O)CCCNCC(=O)O; X1 = CCCCCCC[C@H](N[*:1])C(=O)[*:2]; NMeAad = CN[C@@H](CCCC(=O)O)C(=O)O; NMeF = CN[C@@H](Cc1ccccc1)C(=O)O; NMeDab = CN[C@@H](CCN)C(=O)O; NMeDap = CN[C@@H](CN)C(=O)O; NMeA = CN[C@@H](C)C(=O)O

Assays:
Myostatin = biological target: T1, Myostatin (Homo sapiens, UniProt O14793); assay: Reporter gene assay for myostatin signaling in HepG2 cell line, Evaluation Procedure (1), myostatin inhibition; type: cell-based
T1 construct: active myostatin (also called mature myostatin) is a homodimer consisting of two C-terminal growth factor domains; purchased R&D systems 788-G8/CF
T1 sequence (O14793 267-375): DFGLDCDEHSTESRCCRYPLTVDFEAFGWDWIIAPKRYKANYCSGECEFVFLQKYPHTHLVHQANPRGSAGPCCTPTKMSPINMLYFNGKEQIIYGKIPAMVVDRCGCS
Procedure: (§1) In this Example, the in vitro myostatin inhibitory effects of the peptides synthesized in Examples 1 and 2 were evaluated using a reporter gene assay for myostatin signaling in HepG2 cell line.
(§2) HepG2 cell line (HB-8065, ATCC) cultured in EMEM (055-08975, WAKO Industries) containing 10% FBS (10270106, Gibco) and 50 µg/mL gentamicin (11980-14, Nacalai Tesque) was seeded in 96-well plates (167008, Thermo) at 2.0 × 10^4 cells/well and incubated in a CO2 incubator (37°C, 5% CO2) for 24 hours. The pGL3(CAGA)12-luc plasmid, namely a pGL3 vector (E1751, Promega) having a luciferase gene inserted downstream of a promoter sequence with 12 CAGA repeats attached, was added to the wells along with a transfection reagent (X-treamGENE9 DNA Transfection Reagent, 6365809001, Roche) at a concentration of 0.04 µg/well. The cell line was cultured in a CO2 incubator (37°C, 5% CO2) for 24 hours for transfection. The medium was discarded and replaced with EMEM containing 50 µL/well of 0.1% bovine serum albumin (A7030, Sigma) and 50 µg/mL gentamicin, and incubated in a CO2 incubator (37°C, 5% CO2) for 2 hours.
(§3) Myostatin (788-G8/C, R&D systems) or GDF-11 (1958-GD-G8/CF, R&D systems) was added so that the final concentrations were those listed in Table 5.
(§4) A 4-fold dilution series of various peptides synthesized in Examples 1 and 2 was added to achieve 0.006-100 nmol/L (myostatin inhibition) and 0.12-2000 nmol/L (GDF-11 inhibition). At this time, blank wells, in which neither myostatin, GDF-11, nor each peptide was added, were also prepared and incubated in a CO2 incubator (37°C, 5% CO2) for 20 to 24 hours.
(§5) The medium containing the cells was removed, and a mixture containing PBS (14190144, Thermo) and a chromogenic substrate One-Glo Luciferase Assay System (E6120, Promega) at a ratio of 1:1 was added to each well at 100 µL/well. This was stirred with a plate shaker for 5 min and transferred to a 384-well plate (3570, Corning) at a volume of 20 µL/well.
(§6) The plate was centrifuged at 1,000 × g for 1 min and the luminescence signal (700 nm luminescence) was measured using a plate reader (Envision 2104, PerkinElmer). Based on the measured values, IC50 values of the peptides were calculated using software (Prism 9, GraphPad). […]
(§7) In this Example, the in vitro myostatin inhibitory effects of the peptides synthesized in Examples 10 and 11 were evaluated according to the Evaluation Procedure (1) in Example 3.

GDF-11 = biological target: T2, GDF-11 (Homo sapiens, UniProt O95390); assay: Reporter gene assay for myostatin signaling in HepG2 cell line, Evaluation Procedure (1), GDF-11 inhibition; type: cell-based
T2 construct: purchased R&D systems 1958-GD-G8/CF
T2 sequence (O95390 299-407): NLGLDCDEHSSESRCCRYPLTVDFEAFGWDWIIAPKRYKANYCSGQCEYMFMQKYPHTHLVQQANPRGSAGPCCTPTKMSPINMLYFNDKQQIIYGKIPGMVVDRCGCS
Procedure: as §1, §2, §3, §4, §5, §6, §7

[1] = Method D: Myostatin 1.5 ng/mL, read-out: IC50 (Luciferase) Myostatin HepG2
[2] = Method D: GDF-11 1.5 ng/mL, read-out: IC50 (Luciferase) GDF-11 HepG2
[3] = HepG2, luciferase reporter, Evaluation Procedure (1), Method D
[4] = HepG2, luciferase reporter, Evaluation Procedure (1), Method D, read-out: IC50 (Luciferase) GDP-11 HepG2

Row | IC50 (Myostatin; [1]) | IC50 (GDF-11; [2]) | IC50 (Myostatin; [3]) | IC50 (GDF-11; [4]) | SMILES
1 | 0.04 nM | 15.2 nM |  |  | CCCCCCC[C@@H]1NC(=O)[C@@H]2Cc3ccc(cc3)CNC(=O)CC[C@H](NC(=O)CSC[C@H](C(=O)O)NC(=O)[C@H](Cc3ccccc3)N(C)C(=O)[C@H](C)N(C)C1=O)C(=O)N[C@@H](C)C(=O)N[C@@H](Cc1cn(-c3ccc(C(=O)O)cc3)c3cc(O)ccc13)C(=O)N[C@@H](Cc1ccc(O)cc1)C(=O)N(C)[C@@H](Cc1ccccc1)C(=O)N[C@@H]([C@@H](C)CC)C(=O)N1CCC[C@@H]1C(=O)N[C@@H](Cc1cccc(OCC(=O)O)c1)C(=O)N[C@@H](Cc1ccc(C(=O)O)cc1)C(=O)N[C@@H](CCCNC(=N)N)C(=O)N2C [Myostatin_99_v424] ({CH2CO}-EA[Trp(6-OH,1-(4-HO2C-Ph))]Y[NMeF]I[dP][Phe(3-OCH2COOH)][Phe(4-COOH)]R[NMePhe(4-CH2NH2)][X1][NMeA][NMeF][dC]-OH; lactam 1-11; thioether N-15)
2 |  |  | 0.11 nM | 90.2 nM | CCCCCCC[C@@H]1NC(=O)[C@H](Cc2ccccc2)N(C)C(=O)[C@H](CCCNC(=N)N)NC(=O)[C@H](Cc2ccc(C(=O)O)cc2)NC(=O)[C@H](Cc2cccc(OCC(=O)O)c2)NC(=O)[C@H]2CCCN2C(=O)[C@H]([C@@H](C)CC)NC(=O)[C@H](Cc2ccccc2)N(C)C(=O)[C@H](Cc2ccc(O)cc2)NC(=O)[C@H](Cc2cn(-c3ccc(C(=O)O)cc3)c3cc(O)ccc23)NC(=O)[C@H](C)NC(=O)CN(CCCC(=O)O)C(=O)[C@H](C)N(C)C(=O)[C@@H](C)NC(=O)[C@H](Cc2ccccc2)N(C)C(=O)[C@H](C)N(C)C1=O [Myostatin_99_v482] (cyclo(A[Trp(6-OH,1-(4-HO2C-Ph))]Y[NMeF]I[dP][Phe(3-OCH2COOH)][Phe(4-COOH)]R[NMeF][X1][NMeA][NMeF][dA][NMeA][Gly(N(CH2)3COOH)]))
3 |  |  | 0.14 nM | 59.9 nM | CCCCCCC[C@@H]1NC(=O)[C@H](Cc2ccccc2)N(C)C(=O)[C@H](CCCNC(=N)N)NC(=O)[C@H](Cc2ccc(C(=O)O)cc2)NC(=O)[C@H](Cc2cccc(OCC(=O)O)c2)NC(=O)[C@H]2CCCN2C(=O)[C@H]([C@@H](C)CC)NC(=O)[C@H](Cc2ccccc2)N(C)C(=O)[C@H](Cc2ccc(O)cc2)NC(=O)[C@H](Cc2cn(-c3ccc(C(=O)O)cc3)c3cc(O)ccc23)NC(=O)[C@H](C)NC(=O)[C@H](C)NC(=O)[C@H](C)N(C)C(=O)[C@@H](C)NC(=O)[C@H](Cc2ccccc2)N(C)C(=O)[C@H](C)N(C)C1=O [Myostatin_99_v483] (cyclo(AA[Trp(6-OH,1-(4-HO2C-Ph))]Y[NMeF]I[dP][Phe(3-OCH2COOH)][Phe(4-COOH)]R[NMeF][X1][NMeA][NMeF][dA][NMeA]))
4 |  |  | 0.18 nM | 53.2 nM | CCCCCCC[C@@H]1NC(=O)[C@H](Cc2ccccc2)N(C)C(=O)[C@H](CCCNC(=N)N)NC(=O)[C@H](Cc2ccc(C(=O)O)cc2)NC(=O)[C@H](Cc2cccc(OCC(=O)O)c2)NC(=O)[C@H]2CCCN2C(=O)[C@H]([C@@H](C)CC)NC(=O)[C@H](Cc2ccccc2)N(C)C(=O)[C@H](Cc2ccc(O)cc2)NC(=O)[C@H](Cc2cn(-c3ccc(C(=O)O)cc3)c3cc(O)ccc23)NC(=O)[C@H](C)NC(=O)CN(CCCC(=O)O)C(=O)CSC[C@H](C(=O)N2CCC(CCC(N)=O)CC2)NC(=O)[C@H](Cc2ccccc2)N(C)C(=O)[C@H](C)N(C)C1=O [Myostatin_99_v488] ({CH2CO}-[Gly(N(CH2)3COOH)]A[Trp(6-OH,1-(4-HO2C-Ph))]Y[NMeF]I[dP][Phe(3-OCH2COOH)][Phe(4-COOH)]R[NMeF][X1][NMeA][NMeF][dC]-{Piperidine(4-CH2CH2CONH2)}; thioether N-15)
5 |  |  | 0.7 nM | 112 nM | CCCCCCC[C@@H]1NC(=O)[C@@H]2Cc3ccc(cc3)CNC(=O)CCC[C@@H](C(=O)N[C@@H](C)C(=O)N[C@@H](Cc3cn(-c4ccc(C(=O)O)cc4)c4cc(O)ccc34)C(=O)N[C@@H](Cc3ccc(O)cc3)C(=O)N(C)[C@@H](Cc3ccccc3)C(=O)N[C@@H]([C@@H](C)CC)C(=O)N3CCC[C@@H]3C(=O)N[C@@H](Cc3cccc(OCC(=O)O)c3)C(=O)N[C@@H](Cc3ccc(C(=O)O)cc3)C(=O)N[C@@H](CCCNC(=N)N)C(=O)N2C)N(C)C(=O)[C@H](C)N(C)C(=O)[C@@H](C)NC(=O)[C@H](Cc2ccccc2)N(C)C(=O)[C@H](C)N(C)C1=O [Myostatin_99_v490] (cyclo(A[Trp(6-OH,1-(4-HO2C-Ph))]Y[NMeF]I[dP][Phe(3-OCH2COOH)][Phe(4-COOH)]R[NMePhe(4-CH2NH2)][X1][NMeA][NMeF][dA][NMeA][NMeAad]); lactam 10-16)

The next lines start with the compound.

Row | SMILES | IC50 (Myostatin; [1]) | IC50 (GDF-11; [2]) | IC50 (Myostatin; [3]) | IC50 (GDF-11; [4])
6 | CCCCCCC[C@@H]1NC(=O)[C@@H]2Cc3ccc(cc3)CNC(=O)CC[C@H](NC(=O)CSC[C@H](C(=O)O)NC(=O)[C@H](Cc3ccccc3)N(C)C(=O)[C@H](C)N(C)C1=O)C(=O)N[C@@H](C)C(=O)N[C@@H](Cc1c[nH]c3ccccc13)C(=O)N[C@@H](Cc1ccc(O)cc1)C(=O)N(C)[C@@H](Cc1ccccc1)C(=O)N[C@@H]([C@@H](C)CC)C(=O)N(C)[C@@H](C)C(=O)N[C@@H](Cc1cccc(OCC(=O)O)c1)C(=O)N[C@@H](Cc1ccc(C(=O)O)cc1)C(=O)N[C@@H](CCCNC(=N)N)C(=O)N2C [Myostatin_99_v358] ({CH2CO}-EAWY[NMeF]I[NMeA][Phe(3-OCH2COOH)][Phe(4-COOH)]R[NMePhe(4-CH2NH2)][X1][NMeA][NMeF][dC]-OH; lactam 1-11; thioether N-15) | 0.17 nM | 52.8 nM |  | 
7 | CCCCCCC[C@@H]1NC(=O)[C@H](Cc2ccccc2)N(C)C(=O)[C@H](CCCNC(=N)N)NC(=O)[C@H](Cc2ccc(C(=O)O)cc2)NC(=O)[C@H](Cc2cccc(OCC(=O)O)c2)NC(=O)[C@H](C)N(C)C(=O)[C@H]([C@@H](C)CC)NC(=O)[C@H](Cc2ccccc2)N(C)C(=O)[C@H](Cc2ccc(O)cc2)NC(=O)[C@H](Cc2c[nH]c3ccccc23)NC(=O)[C@H](C)NC(=O)[C@@H]2CC(=O)NCC[C@@H](C(=O)N(C)[C@@H](Cc3ccccc3)C(=O)N[C@@H](C(=O)O)CSCC(=O)N2)N(C)C1=O [Myostatin_99_v367] ({CH2CO}-DAWY[NMeF]I[NMeA][Phe(3-OCH2COOH)][Phe(4-COOH)]R[NMeF][X1][NMeDab][NMeF][dC]-OH; lactam 1-13; thioether N-15) | 0.15 nM | 117 nM |  | 
8 | CCCCCCC[C@@H]1NC(=O)[C@H](Cc2ccccc2)N(C)C(=O)[C@H](CCCNC(=N)N)NC(=O)[C@H](Cc2ccc(C(=O)O)cc2)NC(=O)[C@H](Cc2cccc(OCC(=O)O)c2)NC(=O)[C@H]2CCCN2C(=O)[C@H]([C@@H](C)CC)NC(=O)[C@H](Cc2ccccc2)N(C)C(=O)[C@H](Cc2ccc(O)cc2)NC(=O)[C@H](Cc2cn(-c3ccc(C(=O)O)cc3)c3cc(O)ccc23)NC(=O)[C@H](C)NC(=O)CN2CCC(=O)NC[C@@H](C(=O)N(C)[C@@H](Cc3ccccc3)C(=O)N[C@@H](C(=O)N3CCC(CCC(N)=O)CC3)CSCC2=O)N(C)C1=O [Myostatin_99_v478] ({CH2CO}-[N(CH2CH2CO)Gly]A[Trp(6-OH,1-(4-HO2C-Ph))]Y[NMeF]I[dP][Phe(3-OCH2COOH)][Phe(4-COOH)]R[NMeF][X1][NMeDap][NMeF][dC]-{Piperidine(4-CH2CH2CONH2)}; lactam 1-13; thioether N-15) |  |  | 0.04 nM | 25.5 nM
